49 compounds from patent publication US9732065B2, “Cyclic aminomethyl pyrimidine derivative” (Sumitomo Dainippon Pharma Co., Ltd., priority 2013, dated 2017) can be followed below.

In this assay the target is T1, Human dopamine D4 receptor (Homo sapiens, UniProt P21917).
T1 sequence (P21917 1-419): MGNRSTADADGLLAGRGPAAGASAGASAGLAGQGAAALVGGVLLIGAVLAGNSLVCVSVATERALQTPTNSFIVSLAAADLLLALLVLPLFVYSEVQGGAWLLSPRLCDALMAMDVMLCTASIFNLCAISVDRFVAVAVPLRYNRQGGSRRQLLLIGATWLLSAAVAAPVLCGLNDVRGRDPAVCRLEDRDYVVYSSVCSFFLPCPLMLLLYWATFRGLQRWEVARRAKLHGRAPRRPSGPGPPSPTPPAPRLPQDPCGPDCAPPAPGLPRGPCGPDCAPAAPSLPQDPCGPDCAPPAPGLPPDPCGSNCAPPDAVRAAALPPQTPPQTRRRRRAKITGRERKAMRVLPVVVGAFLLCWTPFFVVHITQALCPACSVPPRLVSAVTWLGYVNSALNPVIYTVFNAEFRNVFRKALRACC
The experiment in a line: Agonistic/antagonistic activity in G protein dependent pathway (aequorin intracellular calcium luminescence), D4. It counts as cell-based. Also on record: expressed in transfected cells; host or cells: CHO-K1 or HEK293 cells. The conditions noted are these: read-out: Maximal activity on each receptor (%): D4. How it is done: Plasmids encoding each receptor, aequorin and Gα16 were prepared, and the plasmids were transfected into CHO cells (Chinese Hamster Ovary cells) or HEK293 cells (Human Embryonic Kidney 293 cells) to prepare expressing cell lines.
The agonistic or antagonistic activity of the present compound in the G protein dependent pathway was evaluated on the basis of intracellular calcium levels as follows. CHO-K1 or HEK293 cell lines transfected with D2, D4, α1A, or α2A receptor genes were seeded in a 384-well plate, and incubated in a CO2 incubator at 37° C. for 24 hours, and then a solution of the present compound in DMSO was added into cells preloaded with coelenterazine to measure the change in luminescent signals with a FDSS (Hamamatsu Photonics K.K.). […] The agonistic activity of the present compound was calculated according to the measured luminescent signals, as the maximal activity (Emax) of the present compound. On the other hand, the antagonistic activity of the present compound was calculated according to the luminescent signals in wells with 10 μM of an endogenous ligand alone defined as 100%, as the inhibitory activity of the present compound to an endogenous ligand. EC50 value was calculated as the concentration of the present compound required to achieve a 50% response, and IC50 was calculated as the concentration of the present compound required to achieve a 50% inhibition of the Emax of an endogenous ligand.
For orientation: Calcium assays in cells follow changes in intracellular calcium, usually with a dye or a luminescent sensor.

Structures are written as SMILES.

As for `Cc1ncc(CN2CCCC(c3cccnc3)CC2)c(N)n1` (stereo not shown) [Example 43, 2-Methyl-5-[4-(pyridin-3-yl)azepan-1-ylmethyl]pyrimidin-4-amine], the Emax at 1 µM was 92%.

For the compound `Cc1cccc(C2=CCN(Cc3cnc(C)nc3N)CC2)n1` [Example 52], the Emax at 1 µM was 67%.

For the compound `Cc1ncc(CN2CCC(c3cccnc3)CC2C)c(N)n1` (stereo not shown) [Example 39, 2-Methyl-5-[2-methyl-4-(pyridin-3-yl)piperidin-1-ylmethyl]pyrimidin-4-amine], the Emax at 1 µM was 49%.

On to `Cc1ncc(CN2CCC(c3cccnc3)CC2)cn1` [Example 32], for which the Emax at 1 µM is 68%.

For the compound `CC(C)c1ncc(CN2CCC(c3cccnc3)CC2)c(N)n1` [Example 16], the Emax at 1 µM worked out at 78%.

For the compound `Cc1ncc(CN2CCC(c3nccs3)CC2)c(N)n1` [Example 47, 2-Methyl-5-[4-(1,3-thiazol-2-yl)piperidin-1-ylmethyl]pyrimidin-4-amine], the Emax at 1 µM worked out at 51%.

Take `Cc1ncc(CN2CCC(c3cncc(F)c3)CC2)c(C)n1` [Example 48, 5-[4-(5-Fluoropyridin-3-yl)piperidin-1-ylmethyl]-2,4-dimethylpyrimidine]: the Emax at 1 µM turned out to be 62%.

For the compound `Cc1cncc(C2=CCN(Cc3cnc(C)nc3N)CC2)c1` [Example 54], the Emax at 1 µM was found to be 60%.

As for `Cc1ncc(CN2CCC(c3ccccn3)C(C)C2)c(N)n1` (stereo not shown) [Example 40, 2-Methyl-5-[3-methyl-4-(pyridin-2-yl)piperidin-1-ylmethyl]pyrimidin-4-amine], the Emax at 1 µM turned out to be 72%.

Turning to `Nc1nc(C2CCCC2)ncc1CN1CCC(c2cccnc2)CC1` [Example 24], the Emax at 1 µM was 103%.

`Cc1ncc(CN2CC=C(c3cccc(Cl)n3)CC2)c(N)n1` [Example 56]: the Emax at 1 µM is 40%.

Regarding `Cc1ncc(CN2CC=C(c3cccnc3)CC2)c(C)n1` [Example 49], the Emax at 1 µM is 66%.

Take `Cc1ncc(CN2CCC(c3cc4ccccc4cn3)CC2)c(N)n1` [Example 9, 5-[4-(Isoquinolin-3-yl)piperidin-1-ylmethyl]-2-methylpyrimidin-4-amine]: the Emax at 1 µM worked out at 70%.

With `CCc1ncc(CN2CCC(c3ccccn3)CC2)c(N)n1` [Example 12], the Emax at 1 µM was 101%.

In the case of `Cc1ncc(CN2CCC(c3ccccn3)CC2)cn1` [Example 31], the Emax at 1 µM was found to be 82%.

As to `Cc1ncc(CN2CCC(c3cccnc3)C(C)C2)c(N)n1` (stereo not shown) [Example 41, 2-Methyl-5-[3-methyl-4-(pyridin-3-yl)piperidin-1-ylmethyl]pyrimidin-4-amine], the Emax at 1 µM turned out to be 59%.

Regarding `CNc1nc(C)ncc1CN1CC=C(c2cccnc2)CC1` [Example 26], the Emax at 1 µM was 75%.

Take `Cc1cncc(C2CCN(Cc3cnc(C)nc3N)CC2)c1` [Example 53]: the Emax at 1 µM is 66%.

Regarding `CCc1ncc(CN2CC=C(c3cccnc3)CC2)c(N)n1` [Example 11], the Emax at 1 µM was 93%.

In the case of `Nc1nc(C2CC2)ncc1CN1CCC(c2cccnc2)CC1` [Example 20], the Emax at 1 µM was 54%.

Consider `Cc1ncc(CN2CC=C(c3ccccn3)CC2)c(N)n1` [Example 1, 5-(3′,6′-Dihydro-2,4′-bipyridin-1′(2′H)-ylmethyl)-2-methylpyrimidin-4-amine], for which the Emax at 1 µM is 62%.

Consider `Cc1ccnc(C2=CCN(Cc3cnc(C)nc3N)CC2)c1` [Example 51], for which the Emax at 1 µM stood at 88%.

As for `CC(C)c1ncc(CN2CC=C(c3cccnc3)CC2)c(N)n1` [Example 15], the Emax at 1 µM is 131%.

Turning to `CNc1nc(C)ncc1CN1CCC(c2cccnc2)CC1` [Example 28], the Emax at 1 µM worked out at 62%.

`Cc1ncc(CN2CC=C(c3cncc(F)c3)CC2)c(N)n1` [Example 4, 5-(5-Fluoro-3′,6′-dihydro-3,4′-bipyridin-1′(2′H)-ylmethyl)-2-methylpyrimidin-4-amine]: the Emax at 1 µM came out at 65%.

With `Cc1ncc(CN2CC=C(c3ncccc3F)CC2)c(N)n1` [Example 3, 5-(3-Fluoro-3′,6′-dihydro-2,4′-bipyridin-1′(2′H)-ylmethyl)-2-methylpyrimidin-4-amine], the Emax at 1 µM was 69%.

As to `Nc1ncc(CN2CC=C(c3ccccn3)CC2)cn1` [Example 34, 5-(3′,6′-Dihydro-2,4′-bipyridin-1′(2′H)-ylmethyl)pyrimidin-2-amine], the Emax at 1 µM was determined as 93%.

Turning to `Cc1ccnc(C2CCN(Cc3cnc(C)nc3N)CC2)c1` [Example 57, 2-Methyl-5-[4-(4-methylpyridin-2-yl)piperidin-1-ylmethyl]pyrimidin-4-amine], the Emax at 1 µM came out at 62%.

As to `Cc1ncc(CN2CCC(c3cncc(F)c3)CC2)c(N)n1` [Example 7, 5-[4-(5-Fluoropyridin-3-yl)piperidin-1-ylmethyl]-2-methylpyrimidin-4-amine], the Emax at 1 µM is 64%.

`Nc1nc(C2CCCC2)ncc1CN1CCC(c2ccccn2)CC1` [Example 23]: the Emax at 1 µM came out at 105%.

Take `Cc1ncc(CN2CC=C(c3cc(Cl)ccn3)CC2)c(N)n1` [Example 55]: the Emax at 1 µM is 88%.

As to `Cc1ncc(CN2CC=C(c3ccccn3)CC2)c(C)n1` [Example 50], the Emax at 1 µM is 70%.

As for `Nc1ncc(CN2CC=C(c3cccnc3)CC2)cn1` [Example 35], the Emax at 1 µM worked out at 86%.

For the compound `Cc1ncc(CN2CCC(c3ccccn3)CC2C)c(N)n1` (stereo not shown) [Example 38, 2-Methyl-5-[2-methyl-4-(pyridin-2-yl)piperidin-1-ylmethyl]pyrimidin-4-amine], the Emax at 1 µM came out at 51%.

For `CCc1ncc(CN2CCC(c3cccnc3)CC2)c(N)n1` [Example 13], the Emax at 1 µM was 81%.

Take `Cc1ncc(CN2CC=C(c3ccccn3)CC2)cn1` [Example 29, 1′-[(2-Methylpyrimidin-5-yl)methyl]-1′,2′,3′,6′-tetrahydro-2,4′-bipyridine]: the Emax at 1 µM worked out at 107%.

As to `Nc1nc(C2CC2)ncc1CN1CCC(c2ccccn2)CC1` [Example 19], the Emax at 1 µM stood at 64%.

`Cc1ncc(CN2CC=C(c3cccnc3)CC2)cn1` [Example 30]: the Emax at 1 µM was 86%.

On to `Nc1nc(C2CCCC2)ncc1CN1CC=C(c2ccccn2)CC1` [Example 21], for which the Emax at 1 µM is 93%.

For the compound `Nc1nc(C2CC2)ncc1CN1CC=C(c2cccnc2)CC1` [Example 18], the Emax at 1 µM came out at 58%.

With `Nc1nc(C2CC2)ncc1CN1CC=C(c2ccccn2)CC1` [Example 17], the Emax at 1 µM stood at 72%.

Regarding `CC(C)c1ncc(CN2CC=C(c3ccccn3)CC2)c(N)n1` [Example 14], the Emax at 1 µM was determined as 87%.

As to `Cc1ncc(CN2CCC(c3nccc4ccccc34)CC2)c(N)n1` [Example 8], the Emax at 1 µM was 62%.

Take `CNc1nc(C)ncc1CN1CC=C(c2ccccn2)CC1` [Example 25]: the Emax at 1 µM amounted to 71%.

As for `CCc1ncc(CN2CC=C(c3ccccn3)CC2)c(N)n1` [Example 10, 5-(3′,6′-Dihydro-2,4′-bipyridin-1′(2′H)-ylmethyl)-2-ethylpyrimidin-4-amine], the Emax at 1 µM came out at 110%.

On to `Nc1nc(C2CCCC2)ncc1CN1CC=C(c2cccnc2)CC1` [Example 22], for which the Emax at 1 µM was 72%.

Consider `CNc1nc(C)ncc1CN1CCC(c2ccccn2)CC1` [Example 27], for which the Emax at 1 µM came out at 66%.

As to `Cc1ncc(CN2CCC(c3cccnc3)CC2)c(N)n1` [Example 6, 2-Methyl-5-[4-(pyridin-3-yl)piperidin-1-ylmethyl]pyrimidin-4-amine], the Emax at 1 µM worked out at 63%.

Turning to `Cc1ncc(CN2CCCC(c3ccccn3)CC2)c(N)n1` (stereo not shown) [Example 42, 2-Methyl-5-[4-(pyridin-2-yl)azepan-1-ylmethyl]pyrimidin-4-amine], the Emax at 1 µM was determined as 71%.
